Test results reported in patent US20110065919A1, “5-Substituted Indol-3-Carboxylic Acid Derivatives Exhibiting Antiviral Activity a Method for the Production and Use Thereof” (priority 2007, published 2011).
Converted amounts (≈) assume the structure as drawn. Like-named read-outs stand apart in the source and are kept apart here.

How the values were obtained:
[1] = system: influenza A/New Caledonia/20/99 (H1N1) virus reference strain; test: microbe, parasite or virus in culture; type: cell-based; settings: for Activity at 10 μg/mL / specific activity in relation to influenza A virus reference strain (H1N1), in words / MIC50: MDCK cells; for MIC50: concentration inhibiting viral reproduction by 50%; for Chemotherapeutic Index: ratio of the MTC to the MIC50
[2] = system: MDCK tissue culture cells; test: Cytotoxic action, maximal tolerated concentration in MDCK tissue culture cells
[3] = system: influenza A/Aichi/2/69 virus; test: Murine influenza pneumonia model; type: in vivo, mice; settings: mean life span, 60 mg/kg/day, survivors counted with d=15
Experimental: (§1) 2. Determination of the efficacy of the compounds in the murine influenza pneumonia model.
(§2) The mice were infected intranasally under light ether anesthesia with the influenza A/Aichi/2/69 ([…]) virus. […] The efficacy of the action of the compounds in the influenza pneumonia model were assessed according to the number of mice surviving after infection with the virus and the increase in mean life span
(§3) The mean life span of the mice was calculated according to the following formula: MSD [mean survival day]=Σ(f(d−1)[…], where f is the number of mice dying on day d; the surviving mice were also included in f, and d in this case was 15; n is the number of mice in the group.

[4] = system: influenza A/Aichi/2/69 (H3N3) virus; test: Murine influenza pneumonia model; type: in vivo, mice; settings: for Mortality reduction: versus infected control; for Survived: number of mice surviving, n=10, 60 mg/kg/day
Experimental: as §1, §2, §3

Row | Molecule | efficacy at 10 μg/mL compared with arbidol, in words [1] | Activity at 10 μg/mL [1] | specific activity in relation to influenza A virus reference strain (H1N1), in words [1] | MIC50 [1] | Chemotherapeutic Index [1] | MTC of the Compounds [2] | Life Span [3] | Mortality ([4]; 60 mg/kg/day) | chemotherapeutic action compared with arbidol, in words ([4]; 60 mg/kg/day) | Mortality reduction ([4]; 60 mg/kg/day) | Survived [4] | MIC50 ([1]; Influenza A virus, H1N1, read-out: MIC50)
1 | 1-{6-Bromo-1-methyl-5-methoxy-2-(phenylthio)methyl-1-H-indol-3-yl}-benzylpiperazine | inferior to arbidol in efficacy | 64.4 | high specific activity | 5.8 µg/mL | 6.9 | 40 µg/mL | 13.1 days | 20% | not inferior to arbidol | 61% | 8 | 
2 | CCOC(=O)c1c(CSc2ccccc2)n(C)c2cc(Br)c(O)c(CN(C)C)c12 [Arbidol, 1-methyl-2-phenylthiomethyl-3-carbethoxy-4-dimethylaminomethyl-5-hydroxy-6-bromindol, reference compound] |  | 100.0 |  |  | 6.7 | 40 µg/mL | 12.2 days | 20% |  | 61% | 8 | 6 µg/mL (≈ 12.6 µM)
3 | COc1cc2c(C(=O)N3CCCC3)c(CSc3ccccc3)n(C)c2cc1Br [B] | did not differ from it | 100.0 | high specific activity | 2.0 µg/mL (≈ 4.35 µM) | 7.5 | 15 µg/mL |  |  |  |  |  | 
4 | COc1cc2c(C(=O)N3CCCCC3)c(CSc3ccccc3)n(C)c2cc1Br [C] |  | 52.1 | low activity | 9.2 µg/mL (≈ 19.4 µM) | 2.7 | 25 µg/mL |  |  |  |  |  | 
